Test results reported in patent US20180273531A1, “PYRIMIDINE COMPOUND AND MEDICAL USE THEREOF” (Japan Tobacco Inc., priority 2004, published 2018).

How the values were obtained:
Type in all cases: cell-based
[1] = system: colorectal cancer cell line HT-29 cells; experiment: Growth inhibitory effect against cancer cell lines (3H-thymidine uptake), HT-29; conditions: Homo sapiens, HT-29, inhibition of 3H-thymidine uptake; test substance 18 hrs, then 3H-thymidine 6 hrs; triplicate
Procedure, shortened: (§1)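 IC50 = concentration reducing ^3H-thymidine incorporation to 50% of DMSO control, measured in triplicate. Compound added 24 hrs after plating (1.0×10^4 cells/well); label (0.25 μCi/well) given after 18 hrs of treatment, followed by 6 hrs further culture and scintillation counting of harvested cells.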

[2] = system: ACHN cells or HT-29 cells; experiment: Cell cycle analysis (flow cytometry, CycleTEST PLUS); conditions: test substance less than 10 μM, 24 hrs, compared to DMSO, n=2, read-out: CELL RATIO OF G0/G1 PHASE
Method: ACHN cells or HT-29 cells were cultured in a 6 well plate at 2.5×10^5 cells/1.8 mL/well for 24 hrs, then a test substance (less than 10 μM) dissolved in DMSO was added. After 24 hrs, cells were detached using trypsin-EDTA and the DNA content of single cell was analyzed by flow cytometry method using a CycleTEST PLUS (BECKTON DICKINSON) kit, and the proportion of the cells in the G0/G1 phase·S phase·G2/M phase was calculated. As a control, DMSO was used and the test was performed with n=2.

p15 protein = experiment: Evaluation of p15 induction activity (Western blotting); conditions: test substance 0.1 μM, 24 hrs, ACHN cells or HT-29 cells, compared to DMSO, n=2
Procedure, shortened: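 p15 protein quantified by densitometry of anti-p15 Western blots (10 μg protein per lane, mean of n=2). Samples came from HT-29 or ACHN cells given 0.1 μM compound for 24 h after 24 h plating, with DMSO as control.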

p27 protein = p27 protein induction test (Western blotting); conditions: test substance (0.1 1M), 24 hrs, ACHN cells or HT-29 cells, compared to DMSO, n=2
Procedure, shortened: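 p27 level taken as anti-p27 band density by densitometry, mean of n=2, with DMSO as control. Samples loaded at amount equivalent to 10 μg BSA. Cells were ACHN or HT-29, exposed 24 h to […] test substance after 24 h pre-culture.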

[3] = system: Renal cancer cell line ACHN cell; experiment: Growth inhibitory effect against cancer cell lines (3H-thymidine uptake), ACHN; conditions: Homo sapiens, ACHN
Procedure, shortened: as §1

IC50 [1] [µM]	IC50 [3] [µM]	Structure (SMILES)	fold induction [2]	fold induction at 0.1 µM (p15 protein)	fold induction at 0.1 µM (p27 protein)
0.1 to 1	–	Cn1c(=O)cc(Nc2ccc(Cl)cc2)c2c(=O)n(-c3ccccc3)c(=O)n(-c3ccccc3)c21 [Example 1-2]	≥ 1.2	–	–
–	–	Cn1c(=O)cc(Nc2ccccc2Cl)c2c(=O)n(-c3ccccc3)c(=O)n(-c3ccccc3)c21 [Example 1-4]	≥ 1.2	≥ 1.5	–
–	–	Cc1ccc(Nc2cc(=O)n(C)c3c2c(=O)n(-c2ccccc2)c(=O)n3-c2ccccc2)cc1 [Example 1-6]	≥ 1.2	≥ 1.5	–
–	–	COc1ccc(Nc2cc(=O)n(C)c3c2c(=O)n(-c2ccccc2)c(=O)n3-c2ccccc2)cc1 [Example 1-9]	≥ 1.2	≥ 1.5	–
–	–	CCc1ccc(Nc2cc(=O)n(C)c3c2c(=O)n(-c2ccccc2)c(=O)n3-c2ccccc2)cc1 [Example 1-21]	≥ 1.2	–	–
–	–	CC(C)c1ccc(Nc2cc(=O)n(C)c3c2c(=O)n(-c2ccccc2)c(=O)n3-c2ccccc2)cc1 [Example 1-25]	≥ 1.2	–	–
–	–	Cn1c(=O)cc(Nc2ccc(Cl)cc2Cl)c2c(=O)n(-c3ccccc3)c(=O)n(-c3ccccc3)c21 [Example 1-26]	≥ 1.2	≥ 1.5	–
–	–	Cn1c(=O)cc(Nc2ccc(C(F)(F)F)cc2)c2c(=O)n(-c3ccccc3)c(=O)n(-c3ccccc3)c21 [Example 1-33]	≥ 1.2	≥ 1.5	–
–	–	Cc1ccc(Nc2cc(=O)n(C)c3c2c(=O)n(-c2ccccc2)c(=O)n3-c2ccccc2)c(Cl)c1 [Example 1-34]	≥ 1.2	≥ 1.5	–
–	–	CCc1ccccc1Nc1cc(=O)n(C)c2c1c(=O)n(-c1ccccc1)c(=O)n2-c1ccccc1 [Example 1-38]	≥ 1.2	≥ 1.5	–
–	–	Cc1c(Nc2ccc(Cl)cc2)c2c(=O)n(-c3ccccc3)c(=O)n(-c3ccccc3)c2n(C)c1=O [Example 1-43]	≥ 1.2	≥ 1.5	–
–	–	CCCc1ccccc1Nc1cc(=O)n(C)c2c1c(=O)n(-c1ccccc1)c(=O)n2-c1ccccc1 [Example 1-50]	≥ 1.2	–	–
–	–	Cn1c(=O)cc(Nc2ccc(Cl)cc2)c2c(=O)n(CC(F)(F)F)c(=O)n(-c3ccccc3)c21 [Example 1-90]	≥ 1.2	–	–
–	–	CCCc1c(Nc2ccc(Cl)cc2)c2c(=O)n(-c3ccccc3)c(=O)n(-c3ccccc3)c2n(C)c1=O [Example 1-91]	≥ 1.2	–	–
–	–	Cn1c(=O)cc(Nc2ccc(Cl)cc2)c2c(=O)n(C3CC3)c(=O)n(-c3ccccc3C(F)(F)F)c21 [Example 1-101]	≥ 1.2	–	–
< 0.01	0.01 to 0.1	Cc1c(=O)n(C)c(Nc2ccc(I)cc2F)c2c(=O)n(C3CC3)c(=O)n(-c3cccc(N4CCN(C)CC4=O)c3)c12 [Example 4-122]	–	≥ 1.5	≥ 1.5
< 0.01	0.1 to 1	Cc1c(=O)n(C)c(Nc2ccc(I)cc2F)c2c(=O)n(C3CC3)c(=O)n(-c3ccc4c(c3)NC(=O)CC4)c12 [Example 4-123]	–	≥ 1.5	≥ 1.5
< 0.01	0.01 to 0.1	Cc1c(=O)n(C)c(Nc2ccc(I)cc2F)c2c(=O)n(C3CC3)c(=O)n(-c3cccc(N4CCNC4=O)c3)c12 [Example 4-124]	–	≥ 1.5	≥ 1.5
< 0.01	< 0.01	Cc1c(=O)n(C)c(Nc2ccc(I)cc2F)c2c(=O)n(C3CC3)c(=O)n(-c3cccc(N4CCOC4=O)c3)c12 [Example 4-125]	–	≥ 1.5	≥ 1.5
< 0.01	0.01 to 0.1	Cc1c(=O)n(C)c(Nc2ccc(I)cc2F)c2c(=O)n(C3CC3)c(=O)n(-c3cccc(S(N)(=O)=O)c3)c12 [Example 4-127]	–	≥ 1.5	≥ 1.5
< 0.01	0.01 to 0.1	Cc1c(=O)n(C)c(Nc2ccc(I)cc2F)c2c(=O)n(C3CC3)c(=O)n(-c3ccc4c(c3)NC(=O)C4(C)C)c12 [Example 4-128]	–	≥ 1.5	≥ 1.5
